The nature of the data set: solvent given as SMILES.

Structures are written as SMILES.

Consider `CC(C)[Si](C#Cc1c2nsnc2c(C#C[Si](C(C)C)(C(C)C)C(C)C)c2nc3c(nc12)C1c2ccccc2C3c2ccccc21)(C(C)C)C(C)C`, for which the emission maximum (in CCCCCC) is given as 526 nm.

Turning to `CC(C)(C)c1ccc2c(c1)c1cc(C(C)(C)C)ccc1n2-c1ccc(S(=O)(=O)c2ccc(S(=O)(=O)c3ccc(-n4c5ccc(C(C)(C)C)cc5c5cc(C(C)(C)C)ccc54)cc3)cc2)cc1`, the emission maximum (in Cc1ccccc1) came out at 446 nm.

For `COc1cccc2cc(-c3ccc([N+](=O)[O-])cc3)c(=O)oc12`, the emission maximum reads like this: (in C1CCOC1) 373 nm; (in CC#N) 363 nm; (in CS(C)=O) 385 nm; (in ClC(Cl)Cl) 377 nm.

Regarding `CCOC(=O)c1sc(SC)c2c(=O)[nH]nnc12`, the emission maximum was found to be 465 nm (in C1CCOC1); 478 nm (in CC#N); 492 nm (in CCO); 478 nm (in CN(C)C=O); 499 nm (in CO); 491 nm (in CS(C)=O).

For the molecule `CCN1c2ccc(/C=N/Nc3ccccn3)cc2Sc2cc(-c3ccc(OC)cc3)ccc21`, the emission maximum (in C1CCOC1) is reported as 491 nm, the emission maximum (in CS(C)=O) worked out at 503 nm, the emission maximum (in Cc1ccccc1) came out at 484 nm and the emission maximum (in ClCCl) is listed as 497 nm.

Consider `F[B-]1(F)N2C=CN=CC2=[N+]2[N+]1=Cc1c(-c3ccccc3)cc(-c3cccs3)n1[B-]2(F)F`, for which the emission maximum (in ClCCl) is 566 nm.

Consider `Cc1ccc(C2=Nc3cccc4[n+]3[B-](F)(O2)OC(c2ccc(C)cc2)=N4)cc1`, for which the emission maximum (in ClCCl) was 457 nm.

The molecule `CCCCCCCCn1c2ccc(/C=C/c3ccc(N(c4ccccc4)c4ccccc4)cc3)cc2c2cc3c(cc21)c1cc(/C=C/c2ccc(N(c4ccccc4)c4ccccc4)cc2)ccc1n3CCCCCCCC` showed an emission maximum (in Cc1ccccc1) of 453 nm.

Consider `Nc1ccc(/C=C2\OC(=O)c3ccccc32)cc1`, for which the emission maximum reads like this: (in CC#N) 547.95 nm; (in CC(C)=O) 390.02 nm; (in CC(C)CO) 547.65 nm; (in CC(C)O) 548.25 nm; (in CCCO) 549.75 nm; (in CCO) 552.49 nm. Also, the emission maximum amounted to 503.52 nm (in CCOC(C)=O), 485.91 nm (in CCOCC) and 552.49 nm (in CO).

For the setting “in ClCCl”, `CCOC(=O)c1c(-c2cc3ccccc3oc2=O)nn(-c2ccc(OC)cc2)c1C(=O)OCC` showed an emission maximum of 457 nm.

Regarding `CCCCCCCCOc1ccc(C#Cc2c3cc4ccccc4cc3c(C#C[Si](C(C)C)(C(C)C)C(C)C)c3cc4ccccc4cc23)cc1`, the emission maximum (in ClCCl) stood at 666 nm.

With `CN(C)c1ccc(/C=C2\OC(=O)c3cc(N)ccc32)cc1`, the emission maximum by setting is: (in CC#N) 561.8 nm; (in CC(C)=O) 537.06 nm; (in CC(C)CO) 542.89 nm; (in CC(C)O) 550.06 nm; (in CCCO) 559.91 nm; (in CCO) 568.18 nm. Besides, the emission maximum is, setting by setting: (in CCOC(C)=O) 520.83 nm; (in CCOCC) 444.84 nm; (in CO) 568.18 nm.

On to `CN(C)c1ccc(/C=C/C=C2\CC/C(=C\c3ccc(N(C)C)cc3)C2=O)cc1`, for which the emission maximum reads like this: (in C1CCOC1) 649 nm; (in CC#N) 666 nm; (in CC(C)=O) 650 nm; (in CC(C)O) 687 nm; (in CCCCCC) 504 nm; (in CCCCO) 712 nm. The same molecule displayed an emission maximum (in CCCCOC(C)=O) of 581 nm; an emission maximum (in CCCO) of 717 nm; an emission maximum (in CCO) of 725 nm; an emission maximum (in CCOC(=O)c1ccccc1) of 604 nm; an emission maximum (in CCOC(C)=O) of 591 nm; an emission maximum (in CCOCC) of 546 nm. The emission maximum (in CN(C)C=O) is 656 nm; the emission maximum (in CO) is listed as 737 nm; the emission maximum (in CS(C)=O) is on record as 676 nm; the emission maximum (in Cc1ccccc1) was determined as 530 nm; the emission maximum (in ClC(Cl)(Cl)Cl) came out at 515 nm; the emission maximum (in ClC(Cl)Cl) is on record as 623 nm. Also, the emission maximum came to 635 nm (in ClCCl); 608 nm (in Clc1ccccc1Cl); 540 nm (in S=C=S); 532 nm (in c1ccccc1); 643 nm (in c1ccncc1).

As to `CN(C)c1ccc2c(c1)C(C)(C)C1=CC(=[N+](C)C)C=CC1=C2`, the emission maximum came out at 620 nm (in CO) and 621 nm (in O).

In turn, `CCCCCCN1C(=O)c2cccc3c(-c4ccc(C)s4)ccc(c23)C1=O` had an emission maximum (in ClC(Cl)Cl) of 482 nm.

Where the note is “in ClCCl”, `CCN(CC)c1ccc2cc(C#N)c(=N)oc2c1` registered an emission maximum of 460 nm.

As to `CN(C)c1ccc(C2=[N+]3C(=Nc4c(-c5ccc(OCCCCS(=O)(=O)[O-])cc5)cc(-c5ccc(N(C)C)cc5)n4[B-]3(F)F)C(c3ccc(OCCCCS(=O)(=O)[O-])cc3)=C2)cc1`, under “in CS(C)=O”, the emission maximum was found to be 826 nm.

As to `FC(F)(F)c1ccc(/C=C/c2nc3c(ccc4ccccc43)s2)cc1`, the emission maximum (in C1CCCCC1) is given as 432 nm and the emission maximum (in CC#N) is given as 445 nm.

With `c1ccc(-c2nc(-c3ccccc3)nc(-c3ccc(-n4c5ccccc5c5cc(-c6ccc7oc8ccccc8c7c6)ccc54)cc3)n2)cc1`, the emission maximum was determined as 470 nm (in CCOC(C)=O), 526 nm (in CN(C)C=O) and 433 nm (in Cc1ccccc1).

Turning to `CN(C)c1ccc(-n2c(-c3ccncc3)nc3ccccc32)cc1`, the emission maximum (in CC#N) turned out to be 556 nm.

On to `Fc1ccc(-c2ccc(-c3cc(-c4ccccn4)nc(-c4ccccn4)c3)cc2)c(F)c1`, for which the emission maximum (in ClCCl) is 358 nm.

Consider `O=C(O)C1=C/C(=C/C=[NH+]/c2ccc3c(C(F)(F)F)cc(=O)oc3c2)CC(C(=O)O)N1` (centres undefined), for which the emission maximum (in O) was found to be 570 nm.

Consider `Brc1ccc(-c2nc(-c3ccc(C#Cc4ccc(-n5c6ccccc6c6ccccc65)cc4)cc3)nc(-c3ccc(C#Cc4ccc(-n5c6ccccc6c6ccccc65)cc4)cc3)n2)cc1`, for which the emission maximum by setting is: (in C1CCOC1) 465 nm; (in CC#N) 563 nm; (in CCCCCC) 411 nm; (in Cc1ccccc1) 432 nm; (in ClCCl) 498 nm.

On to `C(#Cc1cccc(C#Cc2ccc(-n3c4ccccc4c4ccccc43)cc2)c1)c1ccc(-n2c3ccccc3c3ccccc32)cc1`, for which the emission maximum (in CC#N) was found to be 425 nm; the emission maximum (in CCCCC) is 366 nm; the emission maximum (in CO) is listed as 412 nm; the emission maximum (in Cc1ccccc1) is reported as 374 nm; the emission maximum (in ClC(Cl)Cl) was 368 nm; the emission maximum (in ClCCl) is listed as 394 nm.

With `COc1ccc(-c2ccc(-c3ccc(OC)cc3)c3nc(-c4ccccc4)c(-c4ccccc4)nc23)cc1`, the emission maximum by setting is: (in C1CCOC1) 504 nm; (in CC#N) 512 nm; (in CCCCCC) 477 nm; (in CN(C)C=O) 514 nm; (in Cc1ccccc1) 492 nm; (in ClC(Cl)Cl) 502 nm.

Take `COC(=O)c1nc(Cl)c(-c2ccccc2)o1`: the emission maximum (in C1CCCCC1) is listed as 344 nm.

For the molecule `F[B-]1(F)OC(c2cccc(Br)c2)=Cc2c3ccccc3c3ccccc3[n+]21`, where the note is “in ClC(Cl)Cl”, the emission maximum was 446 nm.

(Values after the Deep4Chem optical property database.)
